Legend:
[1] = test system: Human primary proximal tubule cells (hPTC); test: Phospholipidosis (Red Phospholipidosis reagent) and neutral lipid (Green LipidTox) staining of kidney cells exposed to kidney damaging agents; type: cell-based; conditions: 48 hours
Protocol: Testing the effect of combination therapy on human kidney cells exposed to kidney damaging agents—Human primary proximal tubule cells (hPTC) were seeded at density of 10,000 cells/cm^2 in a black 96-well plate. When the cells reach 80% density, treatments were induced. […] The drugs were induced either alone (controls) or in combination with Empagliflozin (SGLT2i) at 5 μM or Fenofibrate at 20 μM, themselves in combination with Quercetin at 20 μM. All different solutions included 1× Red Phospholipidosis staining reagent as well. hPTC were incubated with the different combinations for 48 hours at 37° C. 5% CO2 […]. After 48 hours, the media were removed and replaced with Green LipidTox stain to stain for neutral lipids in green (diluted at 1:200 in hPTC medium). After 45 minutes of incubation at 37° C., the plate was mounted onto a Zeiss epifluorescent microscope for quantification. Each condition was tested in three biological replicates, and light settings were the same for all the images. Images were analyzed with ImageJ. […]

[2] = test system: human proximal tubule cells (hPTCs); conditions: 48 hours

## OC[C@H]1O[C@@H](c2ccc(Cl)c(Cc3ccc(O[C@H]4CCOC4)cc3)c2)[C@H](O)[C@@H](O)[C@@H]1O [empagliflozin, Empagliflozin]
[1]; Cyclosporine A 1 μM, Cisplatin 1 μM or Gentamicin 1 mM, Empagliflozin 5 μM or Fenofibrate 20 μM
  prevention of Cyclosporine A, Cisplatin and Gentamicin induced lipotoxicity by co-administration: prevented
[2]; co-administration with 1 mM gentamicin, Empagliflozin 5 μM or Fenofibrate 20 μM
  survival of human proximal tubule cells (hPTCs): dramatically increased the survival

## Gentamicin
[1]; kidney damaging agent alone: Cyclosporine A 1 μM, Cisplatin 1 μM, Gentamicin 1 mM
  induced lipotoxicity of the kidneys (phospholipids and neutral lipids): induced lipotoxicity
[2]; hPTC, 1 mM gentamicin by itself
  cell death: induced massive cell death

— US20230201226A1, “COMBINATION THERAPY FOR REDUCING DRUG-INDUCED NEPHROTOXICITY, DYSLIPIDEMIA AND HYPERGLYCEMIA” (Yissum Research Development Company of the Hebrew …, priority 2020, published 2023)
